pIC50: −log10 of the molar value. In brackets after ≈: the same amount, converted by molar mass.
Legend:
[1] = test system: SAU516; experiment: Bacterial susceptibility testing in liquid media (MIC), SAU516; type: cell-based; conditions: strain SAU516
Source text: (§1) Compounds may be tested for antimicrobial activity by susceptibility testing in liquid media. Compounds may be dissolved in dimethylsulfoxide and tested in 10 doubling dilutions in the susceptibility assays. The organisms used in the assay may be grown overnight on suitable agar media and then suspended in a liquid medium appropriate for the growth of the organism. The can be was a 0.5 McFarland and a further 1 in 10 dilution can be made into the same liquid medium to prepare the final organism suspension in 100 pt. Plates can be incubated under appropriate conditions at 37° C. for 24 hrs prior to reading. The Minimum Inhibitory Concentration (MIC) may be determined as the lowest drug concentration able to reduce growth by 80% or more.

[2] = test system: HIN446; experiment: Bacterial susceptibility testing in liquid media (MIC), HIN446; type: cell-based; conditions: strain HIN446
Source text: as §1

[3] = test system: SPN548; experiment: Bacterial susceptibility testing in liquid media (MIC), SPN548; type: cell-based; conditions: strain SPN548
Source text: as §1

[4] = test system: MCA445; experiment: Bacterial susceptibility testing in liquid media (MIC), MCA445; type: cell-based; conditions: strain MCA445
Source text: as §1

[5] = target: GyrB ATPase activity (E. coli GyrA, E. coli GyrB) (Escherichia coli, UniProt P0AES6); experiment: GyrB ATPase inhibition activity assay (ammonium molybdate/malachite green phosphate detection); type: biochemical; conditions: figure quoted may be an average of two or more results
Procedure, shortened: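 E. coli GyrA/GyrB (2.5 nM each) with 5 μg/ml sheared DNA and 250 μM ATP in 50 mM HEPES pH 7.5, 5.5 mM MgCl2, 75 mM ammonium acetate. Released phosphate detected with ammonium molybdate/malachite green reagent. IC50 may be an average of two or more results.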

[6] = test system: EFM073; experiment: Bacterial susceptibility testing in liquid media (MIC), EFM073; type: cell-based; conditions: strain EFM073
Source text: as §1

[7] = test system: Streptococcus pneumoniae; experiment: Bacterial susceptibility testing in liquid media (MIC), Streptococcus pneumoniae; type: cell-based; conditions: against Streptococcus pneumoniae; lowest concentration reducing growth by 80% or more, 37° C., 24 hrs
Source text: as §1

Cc1[nH]c(C(=O)NC2CCN(c3ncc(C(=O)O)s3)CC23OCCCO3)c(Cl)c1Cl (centres unmarked) [Example 16, 2-(11-{[(3,4-Dichloro-5-methyl-1H-pyrrol-2-yl)carbonyl]amino}-1,5-dioxa-8-azaspiro[5.5]undec-8-yl)-1,3-thiazole-5-carboxylic acid]
MIC SAU516 [1]: 2 µg/mL (≈ 4.21 µM) | MIC HIN446 [2]: 1 µg/mL (≈ 2.1 µM) | MIC SPN548 [3]: < 0.063 µg/mL | MIC MCA445 [4]: 0.13 µg/mL (≈ 0.273 µM) | pIC50 [5]: > 8.01 | MIC EFM073 [6]: 1 µg/mL (≈ 2.1 µM)

COC(=O)c1cnc(N2CCC(NC(=O)c3[nH]c(C)c(Cl)c3Cl)C3(C2)OCCO3)s1 (centres unmarked) [Example 1, Methyl 2-(10-{[(3,4-dichloro-5-methyl-1H-pyrrol-2-yl)carbonyl]amino}-1,4-dioxa-7-azaspiro[4.5]dec-7-yl)-1,3-thiazole-5-carboxylate]
pIC50 [5]: 6.33 | MIC [7]: 1 µg/mL (≈ 2.1 µM)

COC1(OC)CN(c2ncc(C(=O)O)s2)CCC1NC(=O)c1[nH]c(C)c(Cl)c1Cl (centres unmarked) [Example 20, 2-(4-{[(3,4-Dichloro-5-methyl-1H-pyrrol-2-yl)carbonyl]amino}-3,3-dimethoxypiperidin-1-yl)-1,3-thiazole-5-carboxylic acid]
MIC SAU516 [1]: 2 µg/mL (≈ 4.32 µM) | MIC HIN446 [2]: 1 µg/mL (≈ 2.16 µM) | MIC SPN548 [3]: 0.13 µg/mL (≈ 0.281 µM) | MIC MCA445 [4]: 0.5 µg/mL (≈ 1.08 µM) | pIC50 [5]: > 7.17 | MIC EFM073 [6]: 2 µg/mL (≈ 4.32 µM)

CNC(=O)c1nc(N2CCC(NC(=O)c3[nH]c(C)c(Cl)c3Cl)C3(C2)OCCCO3)sc1C(=O)O (centres unmarked) [Example 18, 2-(11-{[(3,4-Dichloro-5-methyl-1H-pyrrol-2-yl)carbonyl]amino}-1,5-dioxa-8-azaspiro[5.5]undec-8-yl)-4-[(methylamino)carbonyl]-1,3-thiazole-5-carboxylic acid]
MIC SAU516 [1]: 0.25 µg/mL (≈ 0.47 µM) | MIC HIN446 [2]: 0.5 µg/mL (≈ 0.939 µM) | MIC SPN548 [3]: < 0.063 µg/mL | MIC MCA445 [4]: < 0.063 µg/mL | pIC50 [5]: > 8.01 | MIC EFM073 [6]: 0.25 µg/mL (≈ 0.47 µM)

Cc1[nH]c(C(=O)N[C@H]2CCN(c3ncc(C(=O)O)s3)C[C@H]2n2cnc(Cl)n2)c(Cl)c1Cl (racemic) [Example 45, cis(±)2-(3-(3-Chloro-1H-1,2,4-triazol-1-yl)-4-{[(3,4-dichloro-5-methyl-1H-pyrrol-2-yl)carbonyl]amino}piperidin-1-yl)-1,3-thiazole-5-carboxylic acid]
pIC50 [5]: > 8.01

COCC(COC)NC(=O)c1nc(N2CC[C@@H](NC(=O)c3[nH]c(C)c(Cl)c3Cl)[C@@H](n3cc(Br)nn3)C2)sc1C(=O)O [Example 113]
pIC50 [5]: > 8.01

COCCNC(=O)c1nc(N2CC[C@@H](NC(=O)c3[nH]c(C)c(Cl)c3Cl)[C@@H](n3cc(C)nn3)C2)sc1C(=O)O [Example 104]
pIC50 [5]: > 8.01

Cc1[nH]c(C(=O)N[C@H]2CCN(c3ncc(C(=O)O)s3)C[C@H]2n2cncn2)c(Cl)c1Cl (racemic) [Example 43, cis(±)2-[4-{[(3,4-Dichloro-5-methyl-1H-pyrrol-2-yl)carbonyl]amino}-3-(1H-1,2,4-triazol-1-yl)piperidin-1-yl]-1,3-thiazole-5-carboxylic acid]
pIC50 [5]: > 8.01

CO/N=C1\CN(c2nc(-c3ncnn3C)c(C(=O)OC)s2)CCC1NC(=O)c1[nH]c(C)c(Cl)c1Cl (centres unmarked) [Example 34, Methyl 2-[(3E)-4-{[(3,4-dichloro-5-methyl-1H-pyrrol-2-yl)carbonyl]amino}-3-(methoxyimino)piperidin-1-yl]-4-(1-methyl-1H-1,2,4-triazol-5-yl)-1,3-thiazole-5-carboxylate]
pIC50 [5]: 7.18

COC(=O)c1cnc(N2CC[C@@H](NC(=O)c3[nH]c(C)c(Cl)c3Cl)[C@@H](n3ccnn3)C2)s1 [Example 70, Methyl 2-[(3S,4R)-4-{[(3,4-dichloro-5-methyl-1H-pyrrol-2-yl)carbonyl]amino}-3-(1H-1,2,3-triazol-1-yl)-1-piperidinyl]-1,3-thiazole-5-carboxylate]
pIC50 [5]: 7.91

C=CCOC(=O)c1sc(N2CCC(NC(=O)c3[nH]c(C)c(Cl)c3Cl)/C(=N/OC)C2)nc1C(=O)NCCOC (centres unmarked) [Example 30, Allyl 2-[(3E)-4-{[(3,4-dichloro-5-methyl-1H-pyrrol-2-yl)carbonyl]amino}-3-(methoxyimino)piperidin-1-yl]-4-{[(2-methoxyethyl)amino]carbonyl}-1,3-thiazole-5-carboxylate]
pIC50 [5]: 7.06

COCC(COC)NC(=O)c1nc(N2CC[C@@H](NC(=O)c3[nH]c(C)c(Cl)c3Cl)[C@@H](n3cc(C)nn3)C2)sc1C(=O)O [Example 105]
pIC50 [5]: > 8.01

COCC(COC)NC(=O)c1nc(N2CC[C@@H](NC(=O)c3[nH]c(C)c(Cl)c3Cl)[C@@H](n3cc(CF)nn3)C2)sc1C(=O)O [Example 112]
pIC50 [5]: > 8.01

— US20100286181A1, “PYRROLE DERIVATIVES WITH ANTIBACTERIAL ACTIVITY” (ASTRAZENECA AB, priority 2006, published 2010)
